The values below come from US20180153870A1, “BIPERIDEN FOR TREATING CANCER” (Universitätsklinikum Hamburg-Eppendorf, priority 2015, published 2018).

Holding throughout (assay type): cell-based, human
The subject of assay [1] is tested cell lines (L3.6pl res, L3.6pl wt, Panc-1, Panc-2, BxPC3, HPDE). The assay is described as follows: cleaved caspase 3 sandwich ELISA (apoptosis), all tested cell lines. The note with it: 29.6 μg/ml biperiden. The protocol:
To determine the effect of biperiden, mepazine and combinations of the two active ingredients on apoptosis in cell lines, a “cleaved caspase 3” sandwich ELISA was used. […] The cleaved caspase 3 was measured 24, 48 and 72 hours after incubation. The apoptosis within the cells was measured using a PathScan “cleaved caspase 3” sandwich ELISA (Cell Signaling, #7190C) according to the manufacturers instructions. Each experiment was carried out at least 3 times in duplicate.
(In general: ELISA stands for enzyme-linked immunosorbent assay.)

The subject of a further assay is L3.6pl res. Briefly: cleaved caspase 3 sandwich ELISA (apoptosis), L3.6pl res. The following applies: 29.6 μg/ml biperiden. The protocol: (§1) To determine the effect of biperiden, mepazine and combinations of the two active ingredients on apoptosis in cell lines, a “cleaved caspase 3” sandwich ELISA was used. The pancreatic cancer cell lines L3.6pl res, L3.6pl wt, Panc-1, Panc-2 and the reference cell line HPDE were treated with 29.6 μg/ml biperiden or 25 μM mepazine or 15 μM mepazine+3.7 μg/ml biperiden or only with vehicle (DMSO). The cleaved caspase 3 was measured 24, 48 and 72 hours after incubation. The apoptosis within the cells was measured using a PathScan “cleaved caspase 3” sandwich ELISA (Cell Signaling, #7190C) according to the manufacturers instructions. Each experiment was carried out at least 3 times in duplicate.

The test system of a further assay is HPDE. The assay is described as follows: cleaved caspase 3 sandwich ELISA (apoptosis), HPDE. The following applies: 29.6 μg/ml biperiden. As for the experimental part: as §1
For another assay, the system named is Panc-2. Briefly: cleaved caspase 3 sandwich ELISA (apoptosis), Panc-2. The following applies: 29.6 μg/ml biperiden. As for the experimental part: as §1
For another assay, the system named is BxPC3. Briefly: cleaved caspase 3 sandwich ELISA (apoptosis), BxPC3. The note with it: 29.6 μg/ml biperiden. The protocol:
[The procedure below names another cell line; the source lists this cell line under the same test.] as §1

Assay [2] deals with Panc-1. The assay is described as follows: cleaved caspase 3 sandwich ELISA (apoptosis), Panc-1. The following applies: 29.6 μg/ml biperiden, after 24 hours. The protocol:
as §1

A further assay relates to L3.6pl wt. The assay is described as follows: cleaved caspase 3 sandwich ELISA (apoptosis), L3.6pl wt. The note with it: 29.6 μg/ml biperiden. The protocol:
as §1

Assay [3] deals with Panc-1. The assay is described as follows: MTT proliferation assay, Panc-1. The protocol: The cell lines used for the proliferation assays were cultured in different media. The cell lines Pan-1, Panc-2 and BxPC3, which have been derived from the human ductal pancreatic adenocarcinoma (PDAC), were cultured in Dulbecco's modified Eagle medium (DMEM) (Sigma), that was supplemented with 1% penicillin/streptomycin (Life technologies/GIBCO 15140-122) and 10% fetal bovine serum (Life technologies/GIBCO 100500-064). The cell line L3.6pl was cultured in RPMI 1640 medium (Life technologies/GIBCO 72400-21) that was supplemented with 1% penicillin/streptomycin and 10% fetal bovine serum. […]
The proliferation rates of the cell lines were determined after stimulation with (i) biperiden, (ii) mepazine, and (iii) stimulation with both active ingredients. […] Next morning, the blanket values were measured at 490 nm in an ELISA reader (FLUOstar Omega, BMG LABTECH) after the addition of 100 μL medium and 20 μL MTT substrate (CellTiter 96 AQueous One Solution Cell Proliferation Assay, Promega). […] The ex-tinction was measured every 24 hours during a period of 72 hours.
The normal distribution of the results was analyzed by Kolgomorov-Smirnov test and Shapiro-Wilk test. Non-parametric variables were analyzed using the Mann-Whitney-U test. […]
In general terms: Tetrazolium dyes change colour on reduction, which living cells bring about.

As for `OC(CCN1CCCCC1)(c1ccccc1)C1CC2C=CC1C2` (centres unmarked) [biperiden], the apoptosis result in assay [1] is recorded as “increased apoptosis was observed in all cell lines”. Moreover, the “cleaved caspase 3” value in the assay with L3.6pl res (after 24 hours) is on record as 770.0±72.5 RLU; in the assay with L3.6pl res (after 48 hours) it was 848.1±45.7 RLU; with L3.6pl res (after 72 hours), 633.3±55.7 RLU; with HPDE (after 48 hours), 265.3±27.8 RLU; in the assay with HPDE (after 72 hours) it was 368.4±33.5 RLU; with Panc-2 (after 24 hours), 360.0±11.0 RLU. In addition, the “cleaved caspase 3” value was determined as 306.0±74.8 RLU in the assay on Panc-2 (after 48 hours); 813.1±37.7 RLU in the assay with BxPC3 (after 24 hours); 1046.1 ± 34.7 RLU in the assay with BxPC3 (after 48 hours); 862.8 ± 85.2 RLU with BxPC3 (after 72 hours); 325.1±48.3 RLU with Panc-1 [2]; 443.4±18.1 RLU in the assay with L3.6pl wt (after 24 hours). Besides, the “cleaved caspase 3” value in the assay with L3.6pl wt (after 48 hours) was 386.2±15.9 RLU. Besides, the “increase of apoptosis rate compared to vehicle” value (“increase of apoptosis rate” for short) came out at 274% with L3.6pl res (after 24 hours, p=0.008); 273.8% with L3.6pl res (after 48 hours, p=0.003); 204.0% with L3.6pl res (after 72 hours, p=0.021); 132% in the assay on HPDE (after 48 hours, p=0.037); 283.9% with HPDE (after 72 hours, p=0.002); 109.1% with Panc-2 (after 24 hours, p=0.029). The “increase of apoptosis rate” value in the assay with Panc-2 (after 48 hours, p=0.047) stood at 65.3%; in the assay with BxPC3 (after 24 hours, p=0.002) it was 369.8%; in the assay on BxPC3 (after 48 hours, p=0.004), 357.5%; in the assay with BxPC3 (after 72 hours, p=0.032), 230.9%; in the assay on Panc-1 [2] (p=0.049), 125.3%; in the assay on L3.6pl wt (after 24 hours, p<0.001), 210.4%. In the assay with L3.6pl wt (after 48 hours, p=0.028), the “increase of apoptosis rate” value is listed as 83.5%.

With `CN1CCCC(CN2c3ccccc3Sc3ccccc32)C1` (centres unmarked) [mepazine], the reduction of proliferation in the assay with Panc-1 [3] (15 μM mepazine, p=0.005) was 97.7%. In the assay with Panc-1 [3] (25 μM mepazine, p=0.004), the proliferation result was “completely stopped”.
